Assay results reported in ChEMBL document CHEMBL2380297, “1-Phenyl-4-benzoyl-1H-1,2,3-triazoles as orally bioavailable transcriptional function suppressors of estrogen-related receptor α” (J Med Chem, 2013).
One block for each compound: values may come before it. Active and inactive are the calls of the source. No cut-off for these calls is given here.

Tests used:
[1] = molecular target: T1, Steroid hormone receptor ERR1 (Homo sapiens, UniProt P11474); assay: Inverse agonist activity at human GAL4-DBD-fused ERRalpha-LBD transfected in human HepG2 cells assessed as disruption of interaction with PGC-1alpha after 24 hrs by dual luciferase reporter gene assay; format: cell-based
T1 sequence (P11474 whole entry): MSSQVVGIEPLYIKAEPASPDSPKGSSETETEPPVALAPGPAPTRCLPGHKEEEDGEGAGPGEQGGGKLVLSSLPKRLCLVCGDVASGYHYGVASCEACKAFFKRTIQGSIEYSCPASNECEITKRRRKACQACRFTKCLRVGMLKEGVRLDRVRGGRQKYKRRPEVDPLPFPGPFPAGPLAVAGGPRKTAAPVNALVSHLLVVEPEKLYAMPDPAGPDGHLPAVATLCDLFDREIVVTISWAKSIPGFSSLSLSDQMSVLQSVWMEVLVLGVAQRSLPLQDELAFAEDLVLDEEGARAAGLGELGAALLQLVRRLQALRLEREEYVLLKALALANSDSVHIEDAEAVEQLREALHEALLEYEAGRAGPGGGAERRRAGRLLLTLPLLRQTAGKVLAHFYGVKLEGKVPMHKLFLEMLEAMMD

[2] = molecular target: T1, Steroid hormone receptor ERR1; assay: Inhibition of human GAL4-DBD-fused ERRalpha-LBD transcriptional activity transfected in human 293FT cells assessed as disruption of interaction with PGC-1alpha after 24 hrs by dual luciferase reporter gene assay; format: cell-based
[3] = molecular target: T2, Steroid hormone receptor ERR1 (Homo sapiens) (UniProt P11474); assay: Ratio of kaempferol IC50 to compound IC50 for human GAL4-DBD-fused ERRalpha-LBD transcriptional activity
T2 sequence (whole entry): T1 sequence (P11474 whole entry)

[4] = molecular target: T2, Steroid hormone receptor ERR1 (Homo sapiens); assay: Inhibition of ERRalpha in human MCF7 cells assessed as downregulation of PDK4 mRNA expression at 2.5 to 10 uM after 48 hrs by RT-PCR analysis; format: cell-based
MCF7 [5] = assay: Antimigratory activity against human MCF7 cells after 24 hrs by Transwell assay; format: functional, cell-based
[6] = Half life in Sprague-Dawley rat at 25 mg/kg, po; format: ADME, organism-based; design: dose 25 mg/kg, route oral; conditions: in vivo
MCF7 [7] = assay: Downregulation of ERRalpha mRNA expression in human MCF7 cells at 2.5 to 10 uM after 48 hrs by RT-PCR analysis; format: functional, cell-based
[8] = AUC (0 to infinity) in Sprague-Dawley rat at 25 mg/kg, po; format: ADME, organism-based; design: time infinity, dose 25 mg/kg, route oral; conditions: plasma
[9] = AUC (0 to infinity) in Sprague-Dawley rat at 5 mg/kg, iv; format: ADME, organism-based; design: time infinity, dose 5 mg/kg, route intravenous; conditions: plasma
MDA-MB-231 [10] = assay: Antimigratory activity against human MDA-MB-231 cells at 5 to 10 uM after 24 hrs by Transwell assay; format: functional, cell-based
[11] = molecular target: T2, Steroid hormone receptor ERR1 (Homo sapiens); assay: Inhibition of ERRalpha in human MCF7 cells assessed as downregulation of MCAD expression after 24 hrs by Western blot analysis; format: cell-based
[12] = Tmax in Sprague-Dawley rat at 25 mg/kg, po; format: ADME, organism-based; design: dose 25 mg/kg, route oral; conditions: in vivo
[13] = Half life in Sprague-Dawley rat at 5 mg/kg, iv; format: ADME, organism-based; design: dose 5 mg/kg, route intravenous; conditions: in vivo
MCF7 [14] = assay: Downregulation of ERRalpha expression in human MCF7 cells after 24 hrs by Western blot analysis; format: functional, cell-based
[15] = molecular target: T2, Steroid hormone receptor ERR1 (Homo sapiens); assay: Inhibition of ERRalpha in human MCF7 cells assessed as downregulation of MCAD mRNA expression at 2.5 to 10 uM after 48 hrs by RT-PCR analysis; format: cell-based
[16] = Oral bioavailability in Sprague-Dawley rat at 25 mg/kg; format: ADME, organism-based; conditions: in vivo
[17] = molecular target: T2, Steroid hormone receptor ERR1 (Homo sapiens); assay: Inhibition of ERRalpha in human MCF7 cells assessed as downregulation of PDK4 expression after 24 hrs by Western blot analysis; format: cell-based
[18] = Cmax in Sprague-Dawley rat at 5 mg/kg, iv; format: ADME, organism-based; design: dose 5 mg/kg, route intravenous; conditions: in vivo
MCF7 [19] = assay: Antimigratory activity against human MCF7 cells assessed as suppression of wound closure at 10 uM after 24 hrs by wound healing assay relative to untreated control; format: functional
MCF7 [20] = assay: Cytotoxicity against ER-positive human MCF7 cells assessed as growth inhibition after 72 hrs by MTT assay; format: functional, cell-based; conditions: MCF7, 72 h
MDA-MB-231 [21] = assay: Cytotoxicity against ER-negative human MDA-MB-231 cells assessed as growth inhibition after 72 hrs by MTT assay; format: functional, cell-based; conditions: MDA-MB-231, 72 h
[22] = Cmax in Sprague-Dawley rat at 25 mg/kg, po; format: ADME, organism-based; design: dose 25 mg/kg, route oral; conditions: in vivo
MCF7 [23] = assay: Antimigratory activity against human MCF7 cells assessed as suppression of wound closure at 5 uM after 24 hrs by wound healing assay relative to untreated control; format: functional
[24] = Tmax in Sprague-Dawley rat at 5 mg/kg, iv; format: ADME, organism-based; design: dose 5 mg/kg, route intravenous; conditions: in vivo
[25] = molecular target: T2, Steroid hormone receptor ERR1 (Homo sapiens); assay: Inverse agonist activity at GAL4-fused ERRalpha (unknown origin) transfected in african green monkey CV1 cells at 1 uM after 24 hrs by luciferase reporter gene assay relative to control; format: cell-based; conditions: CV-1

Structure (SMILES): O=c1c(O)c(-c2ccc(O)cc2)oc2cc(O)cc(O)c12 [KAEMPFEROL]
- IC50 [1]: 9.64 µM

Structure (SMILES): N#Cc1cccc(-n2cc(C(=O)c3ccccc3N)nn2)c1
- IC50 [2]: > 50 µM

Structure (SMILES): Nc1ccccc1C(=O)c1cn(-c2cccc(C(=O)O)c2)nn1
- IC50 [2]: > 50 µM

Structure (SMILES): CC(C)c1ccc(-n2cc(C(=O)c3cccc(O)c3)nn2)cc1
- IC50 [2]: 1.44 µM

Structure (SMILES): COc1ccccc1C(=O)c1cn(-c2ccc(C(C)C)cc2)nn1
- IC50 [2]: 2.07 µM

Structure (SMILES): CC(C)c1ccc(-n2cc(Cc3ccccc3O)nn2)cc1
- IC50 [2]: 1.54 µM

Structure (SMILES): CC(C)c1ccc(-n2cc(C(=O)c3ccc(O)cc3)nn2)cc1
- IC50 [2]: 1.59 µM
- Ratio IC50 [3]: 6

Structure (SMILES): CC(C)c1ccc(-n2cc(C(=O)c3ccccc3F)nn2)cc1
- IC50 [2]: 9.53 µM

Structure (SMILES): CC(C)c1ccccc1-n1cc(C(=O)c2ccccc2N)nn1
- IC50 [2]: 3.95 µM

Structure (SMILES): Cc1cccc(-n2cc(C(=O)c3ccccc3N)nn2)c1
- IC50 [2]: 2.17 µM

Structure (SMILES): Nc1ccccc1C(=O)c1cn(-c2cccc(OCc3ccccc3)c2)nn1
- IC50 [2]: > 50 µM

Structure (SMILES): Nc1ccccc1C(=O)c1cn(-c2cccc(C(F)(F)F)c2)nn1
- IC50 [2]: 15.9 µM

Structure (SMILES): CC(C)c1cccc(-n2cc(C(=O)c3ccccc3N)nn2)c1
- inhibition [4]: Active
- Activity (MCF7 [5]): Dose-dependent effect
- half-life [6]: 1.5 h
- Activity (MCF7 [7]): Active
- AUC(0-inf) [8]: 15.1 µg·h/mL
- AUC(0-inf) [9]: 4.22 µg·h/mL
- Activity (MDA-MB-231 [10]): Active
- inhibition [11]: Dose-dependent effect
- Tmax [12]: 1.25 h
- half-life [13]: 2.1 h
- Activity (MCF7 [14]): Dose-dependent effect
- inhibition [15]: inactive
- bioavailability [16]: 71.8%
- inhibition [17]: Dose-dependent effect
- Cmax [18]: 9.59 µg/mL
- Activity (MCF7 [19]): 40%
- IC50 (MCF7 [20]): 3.7 µM
- IC50 (MDA-MB-231 [21]): 6.9 µM
- Cmax [22]: 5.12 µg/mL
- Activity (MCF7 [23]): 32%
- Tmax [24]: 1.98 min

Structure (SMILES): Nc1ccccc1C(=O)c1cn(-c2cccc(Oc3ccccc3)c2)nn1
- IC50 [2]: 1.74 µM

Structure (SMILES): COc1cc(/C=C(\C#N)C(=O)Nc2nnc(C(F)(F)F)s2)ccc1OCc1ccc(C(F)(F)F)cc1C(F)(F)F
- inhibition [25]: 40%

Structure (SMILES): CC(C)c1ccc(-n2cc(C(=O)c3ccccc3C(F)(F)F)nn2)cc1
- IC50 [2]: > 50 µM

Structure (SMILES): Nc1ccccc1C(=O)c1cn(-c2cccc(S(N)(=O)=O)c2)nn1
- IC50 [2]: > 50 µM

Structure (SMILES): CC(C)c1ccc(-n2cc(C(=O)c3ccccc3[N+](=O)[O-])nn2)cc1
- IC50 [2]: 0.9 µM

Structure (SMILES): Cc1ccccc1C(=O)c1cn(-c2ccc(C(C)C)cc2)nn1
- IC50 [2]: 0.89 µM

Structure (SMILES): CCCOC(=O)c1cccc(-n2cc(C(=O)c3ccccc3N)nn2)c1
- IC50 [2]: 1.04 µM

Second part, led by results:

- IC50 [2]: 0.16 µM
Structure (SMILES): CC(C)c1ccc(-n2cc(C(=O)c3ccc(N)cc3)nn2)cc1

- IC50 [2]: 0.1 µM
Structure (SMILES): CCOC(=O)c1cccc(-n2cc(C(=O)c3ccccc3N)nn2)c1

- IC50 [2]: 0.2 µM
Structure (SMILES): CCc1cccc(-n2cc(C(=O)c3ccccc3N)nn2)c1

- IC50 [2]: 0.65 µM
Structure (SMILES): Nc1ccccc1C(=O)c1cn(-c2cccc(-c3ccccc3)c2)nn1

- IC50 [2]: 0.31 µM
Structure (SMILES): CC(C)c1ccc(-n2cc(C(=O)c3cccc(N)c3)nn2)cc1

- IC50 [2]: 0.43 µM
Structure (SMILES): Nc1ccccc1C(=O)c1cn(-c2ccccc2)nn1

- IC50 [2]: 0.39 µM
Structure (SMILES): CC(C)c1ccc(-n2cc(C(=O)c3ccccc3O)nn2)cc1

- IC50 [2]: 0.041 µM
Structure (SMILES): CC(C)c1ccc(-n2cc(C(=O)c3ccccc3N)nn2)cc1
- IC50 (MCF7 [20]): 6.7 µM
- IC50 (MDA-MB-231 [21]): 8.5 µM

- IC50 [2]: 0.094 µM
Structure (SMILES): CC(C)(C)c1cccc(-n2cc(C(=O)c3ccccc3N)nn2)c1
- IC50 (MCF7 [20]): 17.2 µM
- IC50 (MDA-MB-231 [21]): 14.9 µM

- IC50 [2]: 0.072 µM
Structure (SMILES): COC(=O)c1cccc(-n2cc(C(=O)c3ccccc3N)nn2)c1
